Experimental data as given in patent US10829427B2, “Naphthoquinones, pro-drugs, and methods of use thereof” (The Board of Regents of the University of Texas System, priority 2015, dated 2020).
Like-named read-outs stand apart in the source and are kept apart here. Each block holds one molecule with its values, some of them ahead of it.

Key:
A549 = experiment: Relative survival DNA assay, A549, with or without dicoumarol; assay type: cell-based, human; conditions: for DNA amount in survival assay relative to β-lapachone: A549, FIGS. 4G-4I; for IC50: read-out: Inhibition of cell survival of DNA assay IC50
Experimental: (§1) Cell Lines and Culture. Endogenous NQO1 overexpressing human MiaPaca-2 (pancreatic carcinoma), A549 (None-small cell lung carcinoma), and MCF-7 (breast adenocarcinoma) were obtained (Bey, et al., 2007; Li, et al., 2011). All cell lines were grown in DMEM (Life Technologies) containing 5%-10% FBS (Fisher Scientific) in a 5% CO2 and 95% air incubator at 37° C.
(§2) Relative Survival Assays. Relative survival was assessed by DNA content and colony forming assays as described (Dong, et al., 2010). Briefly, for DNA content, cells were seeded at 1×10^4 per well in 48-well plates and allowed to attach overnight. Cells were then mock treated or treated with various doses of naphthaquinones (for 2 hours) in the presence or absence of dicoumarol as indicated. Drug-free medium was then added and cells were allowed to grow for 5 to 7 days until control cells reached ˜100% confluence. DNA content was then determined by Hoechst 33258 staining and fluorescence detection using a plate reader (Perkin-Elmer).

MiaPaca 2 = experiment: Relative survival DNA assay, MiaPaca 2, with or without dicoumarol; assay type: cell-based, human; conditions: for DNA amount in survival assay relative to β-lapachone: MiaPaca 2, FIGS. 4A-4C; for IC50: read-out: Inhibition of cell survival of DNA assay IC50
Experimental: as §1, §2

A549 cells = experiment: Cell viability in A549 cells (7-day DNA assay); assay type: cell-based, human; conditions: relative to β-lapachone
Experimental: (§3) In vitro anti-cancer activity of the compound were performed using ATP Assay Kit (Abcam, ab83355) to initially screen, and further performed using 7-day DNA assay.
(§4) Cell culture: endogenous NQO1 overexpressing human MIA PaCa-2 pancreactic and A549 NSCLC cancer cells were obtained (Bey, et al., 2007; Li, et al., 2011). Cancer cells were grown in DMEM with 5% FBS and Mycoplasma free, and cultured at 37° C. in a 5% CO2 95% air humidified atmosphere.
DNA assay: Cells were seeded into each well of a 48-well plate (10000 cells/well) 24 hours ahead of experiment. After aspiration of the media from each well, 500 μl drug-contained media was added instead, and further incubated for 2 hours. Drugs were then removed, control growth medium was added, and cells were allowed to grow for an additional 7 days. Drugs were added to medium at a 1:1000 dilution immediately before administration to cells. DNA content (a measure of cell growth) was determined by fluoresence of the DNA dye Hoescht 33258 (Sigma), and read in a Cytofluor fluoresence plate reader. Data were expressed as relative growth with 6 repetitions.

MCF-7 = experiment: Relative survival DNA assay, MCF-7, with or without dicoumarol; assay type: cell-based, human; conditions: for DNA amount in survival assay relative to β-lapachone: MCF-7, FIGS. 4D-4F; for IC50: read-out: Inhibition of cell survival of DNA assay IC50
Experimental: as §1, §2

Mia PaCa-2 cells = experiment: ATP assay (ATP depletion / cell viability) in Mia PaCa-2 cells; assay type: cell-based, human; conditions: for IC50/IC50 (β-lapachone/Compoud): Relative activity compare with β-lapachone in ATP depletion of Mia PaCa-2 cells; for IC50: read-out: Inhibition of cell viability of ATP assay IC50
Experimental: as §3, §4
ATP assay: Cells were seeded into each well of a 96-well plate (15000 cells/well) 18 hours ahead of experiment. After aspiration of the media from each well, 100 μl drug-contained media was added instead, and further incubated for 2 hours. After incubation, 100 μl ATP assay kit mixture was added into every well. Following further shaking for 10 minutes with light proof, the data were collected by reading luminescence integrate 1 second per well.

orthotopic A549 model = experiment: In vivo anti-tumor efficacy, NOD-SCID mice bearing orthotopic A549 model; conditions: for Survival relative to vehicle: orthotopic A549, FIG. 7C
Experimental: Formulation. β-lap-HPβCD formulation was prepared according to our previous report.^14 NQ-059 and HPβCD (1:45, w/w) were dissolved in EtOH, and then concentrated in vacuo to form a thin film or a sponge-like film. PBS was added, and a clear solution was formed with shaking. Immediately filtration through a Ø 0.45 µm filter (Whatman), a stable solution was afforded, whose concentration was quantified by UV-vis at 256 nm.
(§5) Survival and Antitumor Efficacies. 6- to 8-week-old NOD-SCID female mice were tail-vein administrated with luciferase gene-transfected A549 cells (1.0×106), and randomized into groups (n=7-13/group), monitored for tumor formation in the lungs using bioluminescence (BLI) following treatment with vehicle, β-lap-HPβCD, or NQ-059-HPβCD. An average of 1.0×10^7 total photons was used before any therapies were given as described (Huang, et al., 2012). Animals were treated with vehicle, β-lap-HPβCD (20 mg/kg), or NQ-059-HPβCD (15 and 12 mg/kg) via tail vein and repeated five times every 3 days. Tumor-bearing mice were imaged using BLI to estimate relative tumor volumes as described (Ma, et al., 2015) using D-luciferin (Promega, 2.5 mg, subcutaneously injected). Relative tumor volume estimates were derived from BLI images of mice captured using a Xenogen Vivovision IVIS Lumina Imager (60 s exposure time). Animals were monitored daily for survival and morbidity. Mortality was recorded over times as a result of cancer-related deaths or drug-related toxicities (≥20% body weight loss relative to the start of therapy). Athymic Nu/Nu nude female mice (18-20 grams) were commercially obtained (Harlan). Human xenografts were generated by injecting 2×10^6 MiaPaca-2 cells subcutaneously in PBS/Matrigel into 6-week-old mice. Tumors were measured at indicated times with digital calipers (Fisher Scientific), and tumor volumes calculated (length×width^2×0.5). Treatments were initiated when subcutaneous tumors reached an average size of >100 mm (Cao, et al., 2003).

blood = experiment: Hemolysis assay; conditions: formulated with cyclodextran 1:30; relative to a blank cyclodextran or a DMSO vehicle, FIG. 9
Description: Hemolysis assay. Hemolysis was quantified and modified according to method previously described (Blanco, et al., 2010). Briefly, after treatment with the blood, the plasma was separated and tested with UV-Vis at 576 nm, and hemolysis was quantified comparing treatment group and control group.

H596 = experiment: Relative survival DNA assay, H596 (low NQO1 expression); assay type: cell-based; conditions: for IC50: H596 (low NQO1 expression), Vehicle, read-out: Inhibition of cell survival of DNA assay IC50
Experimental: as §2

red blood cells = experiment: Methemoglobinemia assay; conditions: formulated with cyclodextran 1:30; relative to a blank cyclodextran or a DMSO vehicle, FIG. 10
Experimental: Methemoglobinemia assay. Collected red blood cells were suspended in 96 well plates or single wells, then were treated with drug for certain time at 37° C. Immediately after the treatment completed, the cells were sit in ice-bath and lysed with 5% Triton X-100. The clear solution afforded were tested with UV-vis at 630 nm, and then were treated with […] K3FeCN6 for 1 min. The yellow solution afforded was tested again at 630 nm.

[1] = system: subcutaneous MiaPaca-2 model; experiment: In vivo anti-tumor efficacy, nude mice bearing subcutaneous MiaPaca-2 model; set-up: species or system Athymic Nu/Nu nude female mice; conditions: subcutaneous MiaPaca-2 tumor model, FIG. 8
Experimental: as §5, with “Human xenografts were generated by injecting 2×10^6 MiaPaca-2 cells subcutaneously in PBS/Matrigel into 6-week-old mice.” left out, “Treatments were initiated when subcutaneous tumors reached an average size of >100 mm (Cao, et al., 2003).” left out

Compound: CC(=O)Nc1cccc2c1C(=O)C(=O)C=C2OC(C)C [Compound 24, N-(5-isopropoxy-7,8-dioxo-7,8-dihydronaphthalen-1-yl)acetamide]
Tumor growth via bioluminescence imaging (orthotopic A549 model; after 74 days, 12 mg/kg): some growth
Tumor growth via bioluminescence imaging (orthotopic A549 model; after day 44, 12 mg/kg): Neither 12 mg/kg or 15 mg/kg NQ-059 showed any tumor growth
Tumor growth via bioluminescence imaging (orthotopic A549 model; after day 44, 15 mg/kg): Neither 12 mg/kg or 15 mg/kg NQ-059 showed any tumor growth
Tumor volume relative to vehicle (orthotopic A549 model; orthotopic A549, FIG. 7B): significantly improved over the vehicle
Survival relative to vehicle (orthotopic A549 model): significantly improved over the vehicle
Hemolysis (blood): reduced toxicity
DNA amount in survival assay (H596; H596, FIG. 4J): lowest amount of DNA at the lowest concentration
IC50 (H596; Homo sapiens, NCI-H596): > 10 µM
Activity relative to β-lapachone on the same plate (A549; A549, FIG. 5B): increased activity
DNA amount in survival assay relative to β-lapachone (A549): decreased DNA amounts at lower concentrations relative to β-lapachone
Fold (IC50 β-lap/IC50 NQ-059) (A549; DNA assay, A549, Vehicle): 3.9
IC50 (A549; Homo sapiens, A549, A549, Dic (dicoumarol, NQO1 inhibitor)): > 10 µM
IC50 (A549; Homo sapiens, A549, A549, Vehicle): 1.25 µM
Methemoglobinemia (red blood cells): reduced toxicity
Fold (IC50 β-lap/IC50 NQ-059) (MiaPaca 2; DNA assay, MiaPaca 2, Vehicle): 4.9
IC50 (MiaPaca 2; Homo sapiens, MIA PaCa-2, MiaPaca 2, Dic (dicoumarol, NQO1 inhibitor)): > 10 µM
IC50 (MiaPaca 2; Homo sapiens, MIA PaCa-2, MiaPaca 2, Vehicle): 0.88 µM
Activity relative to β-lapachone on the same plate (MiaPaca 2; MiaPac2, FIG. 5A): increased activity
DNA amount in survival assay relative to β-lapachone (MiaPaca 2): decreased DNA amounts at lower concentrations relative to β-lapachone
IC50/IC50 (β-lapachone/Compoud) (A549 cells): >3
Fold (IC50 β-lap/IC50 NQ-059) (MCF-7; DNA assay, MCF-7, Vehicle): 2.2
IC50 (MCF-7; Homo sapiens, MCF7, MCF-7, Dic (dicoumarol, NQO1 inhibitor)): > 10 µM
IC50 (MCF-7; Homo sapiens, MCF7, MCF-7, Vehicle): 0.95 µM
DNA amount in survival assay relative to β-lapachone (MCF-7): decreased DNA amounts at lower concentrations relative to β-lapachone
Fold (IC50 β-lap/IC50 NQ-059) (Mia PaCa-2 cells; ATP assay, MiaPac-2, Vehicle): 2.9
IC50 (Mia PaCa-2 cells; Homo sapiens, MIA PaCa-2, MiaPac-2, Vehicle): 0.97 µM
IC50/IC50 (β-lapachone/Compoud) (Mia PaCa-2 cells): >3
Tumor volume relative to the vehicle [1]: statistically significant improvement

Compound: CC(C)OC1=CC(=O)C(=O)c2cc(Cl)c(Cl)cc21 [Compound 37, 6,7-dichloro-4-isopropoxynaphthalene-1,2-dione]
IC50/IC50 (β-lapachone/Compoud) (A549 cells): 0.3~1
IC50/IC50 (β-lapachone/Compoud) (Mia PaCa-2 cells): 1~2

Compound: COCCOCCOCCOCCOC1=CC(=O)C(=O)c2c(NC(C)=O)cccc21 [Compound 48, N-(5-(2,5,8,11-tetraoxatridecan-13-yloxy)-7,8-dioxo-7,8-dihydronaphthalen-1-yl)acetamide]
IC50/IC50 (β-lapachone/Compoud) (A549 cells): >3
IC50/IC50 (β-lapachone/Compoud) (Mia PaCa-2 cells): >3

Compound: CC1(C)CCC2=C(O1)c1ccccc1C(=O)C2=O [β-lapachone, reference compound]
Tumor growth via bioluminescence imaging (orthotopic A549 model; after 74 days, β-lap-HPβCD 20 mg/kg): some tumor growth
Tumor growth via bioluminescence imaging (orthotopic A549 model; after day 44, β-lap-HPβCD 20 mg/kg): some minor tumor growth
Survival relative to vehicle (orthotopic A549 model): small improvement over vehicle
IC50 (H596): > 10 µM
IC50 (A549; A549, Dic (dicoumarol, NQO1 inhibitor)): > 10 µM
IC50 (A549; A549, Vehicle): 4.94 µM
IC50 (MiaPaca 2; MiaPaca 2, Dic (dicoumarol, NQO1 inhibitor)): > 10 µM
IC50 (MiaPaca 2; MiaPaca 2, Vehicle): 4.33 µM
IC50 (MCF-7; MCF-7, Dic (dicoumarol, NQO1 inhibitor)): 9.02 µM
IC50 (MCF-7; MCF-7, Vehicle): 2.1 µM
IC50 (Mia PaCa-2 cells; MiaPac-2, Vehicle): 2.79 µM
Tumor volume relative to the vehicle [1]: did not

Continued, in another order:

IC50/IC50 (β-lapachone/Compoud) (A549 cells): >3
IC50/IC50 (β-lapachone/Compoud) (Mia PaCa-2 cells): >3
Compound: CC(C)OC1=CC(=O)C(=O)c2c(NS(C)(=O)=O)cccc21 [Compound 21, N-(5-isopropoxy-7,8-dioxo-7,8-dihydronaphthalen-1-yl)methanesulfonamide]
DNA amount in survival assay relative to β-lapachone (A549): decreased DNA amounts at lower concentrations relative to β-lapachone
DNA amount in survival assay relative to β-lapachone (MiaPaca 2): decreased DNA amounts at lower concentrations relative to β-lapachone
DNA amount in survival assay relative to β-lapachone (MCF-7): decreased DNA amounts at lower concentrations relative to β-lapachone

IC50/IC50 (β-lapachone/Compoud) (A549 cells): 1~2
IC50/IC50 (β-lapachone/Compoud) (Mia PaCa-2 cells): 1~2
Compound: CCCCCCOC1=CC(=O)C(=O)c2c(NC(C)=O)cccc21 [Compound 28, N-(5-(hexyloxy)-7,8-dioxo-7,8-dihydronaphthalen-1-yl)acetamide]

IC50/IC50 (β-lapachone/Compoud) (A549 cells): 0.3~1
IC50/IC50 (β-lapachone/Compoud) (Mia PaCa-2 cells): 1~2
Compound: CC(C)OC1=CC(=O)C(=O)c2ccc(Cl)cc21 [Compound 34, 6-chloro-4-isopropoxynaphthalene-1,2-dione]

IC50/IC50 (β-lapachone/Compoud) (A549 cells): 1~2
IC50/IC50 (β-lapachone/Compoud) (Mia PaCa-2 cells): 1~2
Compound: CC(C)OC1=CC(=O)C(=O)c2c(O)cccc21 [Compound 38, 8-hydroxy-4-isopropoxynaphthalene-1,2-dione]

IC50/IC50 (β-lapachone/Compoud) (A549 cells): 0.3~1
IC50/IC50 (β-lapachone/Compoud) (Mia PaCa-2 cells): 0.3~1
Compound: COCCOCCOC1=CC(=O)C(=O)c2c(NC(C)=O)cccc21 [Compound 49, N-(5-(2-(2-methoxyethoxy)ethoxy)-7,8-dioxo-7,8-dihydronaphthalen-1-yl)acetamide]
